Reference: patent publication US9988373B2, “Nitrogen-containing six-membered cyclic derivatives and pharmaceutical composition comprising the same” (SHIONOGI & CO., LTD., priority 2013, dated 2018)

What follows are molecules tested against T1, human P2X7 receptor (Homo sapiens, UniProt Q99572, R270H) (assay: Evaluation of a human P2X7 receptor inhibitory activity (Yo-Pro uptake, BzATP stimulation, FLIPR TETRA)). Conditions: antagonistic activity for the human P2X7 receptor, 1321N1 cell transfected with the human P2X7 receptor gene, Yo-Pro fluorescence.
T1 construct: expressed in transfected cells
T1 sequence (Q99572 1-595 R270H): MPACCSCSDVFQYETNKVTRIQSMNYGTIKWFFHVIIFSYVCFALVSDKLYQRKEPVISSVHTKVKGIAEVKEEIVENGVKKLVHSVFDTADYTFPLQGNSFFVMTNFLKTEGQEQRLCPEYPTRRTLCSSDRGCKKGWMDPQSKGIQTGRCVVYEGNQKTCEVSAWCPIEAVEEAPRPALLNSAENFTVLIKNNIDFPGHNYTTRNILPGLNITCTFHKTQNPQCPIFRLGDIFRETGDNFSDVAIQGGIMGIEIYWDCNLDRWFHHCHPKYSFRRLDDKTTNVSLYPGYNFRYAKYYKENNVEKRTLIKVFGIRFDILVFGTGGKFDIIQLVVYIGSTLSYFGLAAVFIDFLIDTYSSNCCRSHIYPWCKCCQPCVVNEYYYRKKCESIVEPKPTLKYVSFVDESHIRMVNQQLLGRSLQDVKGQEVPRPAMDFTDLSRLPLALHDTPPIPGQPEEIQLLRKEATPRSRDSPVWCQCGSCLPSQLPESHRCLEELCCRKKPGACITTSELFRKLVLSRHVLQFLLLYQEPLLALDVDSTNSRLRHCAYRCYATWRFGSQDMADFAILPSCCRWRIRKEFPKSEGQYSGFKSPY
Assay type: cell-based
Protocol: Test Example 1 Evaluation of a Human P2X7 Receptor Inhibitory Activity
Stably expressing cell line (1321N1 cell transfected with the human P2X7 receptor gene (GenBank accession number NM_002562.5 including T606C and G952A SNP)) was used. The cells were seeded in a 384-well microtiter plate at a concentration of 8000 cells/well and cultured in the medium (10% fetal bovine serum, 25 mM HEPES, 1% penicillin and streptomycin in DMEM) for one day at 37° C. under 5% carbon dioxide atmosphere. After replacing with 20 μL of the HBSS buffer (20 mM HEPES. 55.6 mM D-glucose, 1×HBSS(−), pH 7.4-7.5), 15 μL of 17.3 μM Yo-Pro solution in the HBSS buffer was added. The plate was placed in high-throughput cellular screening system FLIPR TETRA (Molecullar Devices, LLC.) and 15 μL of 130 μM BzATP solution in the HBSS buffer was added. Measurement of fluorescence intensity by FLIPR TETRA was started. After eight minutes, 15 μL of DMSO solutions containing different concentrations of the compound of the present invention as prepared by dilution with the HBSS buffer were dispensed to each well through the built-in automatic dispenser, and the measurement of fluorescence intensity was continued for 20 minutes. The maximum fluorescence intensity without the compound of the present invention is calculated as 0% inhibition and the maximum fluorescence intensity when the reference compound was added is calculated as 100% inhibition. Changing values of fluorescence intensity by the compound of the present invention were calculated by difference between maximum and minimum fluorescence intensity for 20 minutes. Inhibition ratios (%) were calculated from the following equation:
[formula] IC50 was calculated using logistic approximation.

| Structure (SMILES) | IC50 [nM] |
| --- | --- |
| O=c1ccn(Cc2cccc3ccsc23)c(-c2cccc(C(F)(F)F)c2Cl)c1 [Compound I-048] | 110 |
| O=c1ccn(CC2CCCCC2)c(-c2cccc(C(F)(F)F)c2Cl)n1 [II-077] | 610 |
| COC(=O)Nc1cn(Cc2ccccc2)c(-c2cccc(C(F)(F)F)c2Cl)nc1=O [II-053] | 71 |
| COc1cn(Cc2ccccc2)c(-c2cccc(C(F)(F)F)c2Cl)cc1=O [Compound I-015] | 44 |

Same assay, conditions: antagonistic activity for the human P2X7 receptor, 1321N1 cell transfected with the human P2X7 receptor gene, Yo-Pro fluorescence, class symbols

| Structure (SMILES) | IC50 [nM] |
| --- | --- |
| CC1(COc2cn(Cc3ccccc3)c(-c3cccc(C(F)(F)F)c3Cl)nc2=O)COC1 [II-029] | 100 to 500 |
| COc1ccccc1Cn1cc(C#N)c(=O)nc1-c1cccc(C(F)(F)F)c1Cl [II-092] | < 50 |
| O=C(c1ccccc1)c1cccc(Cn2ccc(=O)cc2-c2cccc(C(F)(F)F)c2Cl)c1 [Compound I-069] | 500 to 1000 |
| N#CCNc1cn(Cc2ccccc2)c(-c2cccc(C(F)(F)F)c2Cl)nc1=O [II-043] | 50 to 100 |
| O=c1ccn(Cc2ccc(OCc3ccccc3)cc2)c(-c2cccc(C(F)(F)F)c2Cl)c1 [Compound I-064] | 1000 to 10000 |
| O=c1ccn(Cc2c(F)cccc2F)c(-c2cccc(C(F)(F)F)c2Cl)c1 [Compound I-054] | 100 to 500 |
| CCOc1cn(Cc2ccccc2)c(-c2cccc(C(F)(F)F)c2Cl)nc1=O [II-024] | 50 to 100 |
| CC(C)Oc1cn(Cc2ccccc2)c(-c2cccc(C(F)(F)F)c2Cl)nc1=O [II-021] | 50 to 100 |
| O=c1ccn(Cc2cccc(-c3ccccc3)c2)c(-c2cccc(C(F)(F)F)c2Cl)c1 [Compound I-061] | 1000 to 10000 |
| O=c1cc(-c2cccc(C(F)(F)F)c2Cl)n(Cc2ccccc2)cc1Br [Compound I-008] | 100 to 500 |
| COc1cn(Cc2ccc(F)cc2)c(-c2cccc(C(F)(F)F)c2Cl)nc1=O [II-004] | 100 to 500 |
| O=c1ccn(CCc2ccccc2)c(-c2cccc(C(F)(F)F)c2Cl)n1 [II-076] | 1000 to 10000 |
| O=c1ccn(Cc2ccc(Cl)cc2)c(-c2cccc(C(F)(F)F)c2Cl)c1 [Compound I-041] | 1000 to 10000 |
| O=c1ccn(Cc2ccccc2-c2ccccc2)c(-c2cccc(C(F)(F)F)c2Cl)c1 [Compound I-039] | 1000 to 10000 |
| COc1cccc(Cn2ccc(=O)cc2-c2cccc(C(F)(F)F)c2Cl)c1 [Compound I-057] | 100 to 500 |
| COc1cn(Cc2ccccc2)c(C2=CCSCC2)nc1=O [II-072] | 1000 to 10000 |

| Structure (SMILES) | IC50 [nM] |
| --- | --- |
| COc1cn(Cc2ccccc2C)c(-c2ccccc2C(F)(F)F)nc1=O [II-064] | 500 to 1000 |
| O=c1nc(-c2cccc(C(F)(F)F)c2Cl)n(Cc2ccccc2)cc1C(F)(F)F [II-036] | 100 to 500 |
| O=c1cc(-c2cccc(C(F)(F)F)c2Cl)n(Cc2cccc(F)c2)cc1Br [Compound I-010] | 100 to 500 |
| O=c1nc(-c2cccc(C(F)(F)F)c2Cl)n(Cc2ccccc2)cc1OC(F)F [II-035] | 100 to 500 |
| Cc1ccccc1Cn1cc(F)c(=O)nc1-c1cccc(C(F)(F)F)c1Cl [II-011] | < 50 |
| COc1cn(Cc2cccc(CO)c2)c(-c2cccc(C(F)(F)F)c2Cl)nc1=O [II-019] | 50 to 100 |
| O=c1ccn(Cc2ccon2)c(-c2cccc(C(F)(F)F)c2Cl)c1 [Compound I-065] | 1000 to 10000 |
| COc1cn(Cc2ccccc2)c(-c2cnn(Cc3ccccc3)c2)nc1=O [II-070] | 1000 to 10000 |
| O=c1ccn(Cc2cccc(F)c2)c(-c2cccc(C(F)(F)F)c2Cl)c1 [Compound I-027] | 500 to 1000 |
| COc1cn(Cc2ccccc2C)c(-c2ccc(-c3ccccc3)cc2)nc1=O [II-067] | 1000 to 10000 |
| COc1cn(C(C)c2ccccc2)c(-c2cccc(C(F)(F)F)c2Cl)nc1=O (centres unmarked) [II-039] | 50 to 100 |
| COc1cn(Cc2ccc(C#N)cc2)c(-c2cccc(C(F)(F)F)c2Cl)nc1=O [II-014] | 1000 to 10000 |
| COc1ccccc1Cn1cc(OC)c(=O)nc1-c1cccc(C(F)(F)F)c1Cl [II-087] | < 50 |
| Cc1cccc(Cn2ccc(=O)cc2-c2cccc(C(F)(F)F)c2Cl)c1 [Compound I-028] | 100 to 500 |
| N#Cc1cccc(Cn2cc(N)c(=O)cc2-c2cccc(C(F)(F)F)c2Cl)c1 [Compound I-006] | 500 to 1000 |
